Results as given in patent US12077503B2, “Substituted cyclic amides and their use as herbicides” (FMC CORPORATION, priority 2015, dated 2024).

Legend:
Format in all cases: in vivo
Kochia (Kochia scoparia) [1] = test: Test A postemergence; settings: Bassia scoparia, post-emergence, 240 h, postemergence, read-out: Kochia plant response rating
Procedure, shortened: (§1)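 Compounds were formulated in a non-phytotoxic solvent mixture with surfactant and applied as a preemergence directed soil spray after seeding, or sprayed postemergence over plants 2 to 10 cm tall at the one- to two-leaf stage. Evaluation after about 10 d compared treated with untreated controls, using a scale from 0 (no effect) to 100 (complete control).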

[2] = test system: Galium (catchweed bedstraw, Galium aparine); test: Test A postemergence; settings: Galium, post-emergence, 240 h, postemergence, read-out: Galium plant response rating
Procedure, shortened: as §1

[3] = test system: barnyardgrass (Echinochloa crus-galli); test: Test A postemergence; settings: Echinochloa crus-galli, post-emergence, 240 h, postemergence, read-out: Barnyardgrass plant response rating
Procedure, shortened: as §1

corn (Zea mays) = test: Test A postemergence; settings: Zea mays, post-emergence, 240 h, postemergence, read-out: Corn plant response rating
Procedure, shortened: as §1

[4] = test system: pigweed (Amaranthus retroflexus); test: Test A postemergence; settings: Amaranthus retroflexus, post-emergence, 240 h, postemergence
Procedure, shortened: as §1

Kochia (Kochia scoparia) [5] = test: Test A preemergence; settings: Bassia scoparia, pre-emergence, 240 h, preemergence, 0 to 100 scale where 0 is no effect and 100 is complete control, read-out: Kochia plant response rating
Procedure, shortened: as §1

[6] = test system: ragweed (common ragweed, Ambrosia elatior); test: Test A preemergence; settings: Ambrosia artemisiifolia, pre-emergence, 240 h, preemergence, 0 to 100 scale where 0 is no effect and 100 is complete control, read-out: Ragweed plant response rating
Procedure, shortened: as §1

[7] = test system: ryegrass, Italian (Italian ryegrass, Lolium multiflorum); test: Test A preemergence; settings: Lolium multiflorum, pre-emergence, 240 h, preemergence, 0 to 100 scale where 0 is no effect and 100 is complete control, read-out: Ryegrass, Italian plant response rating
Procedure, shortened: as §1

[8] = test system: barnyardgrass (Echinochloa crus-galli); test: Test A preemergence; settings: Echinochloa crus-galli, pre-emergence, 240 h, preemergence, 0 to 100 scale where 0 is no effect and 100 is complete control, read-out: Barnyardgrass plant response rating
Procedure, shortened: as §1

[9] = test system: pigweed (Amaranthus retroflexus); test: Test A preemergence; settings: Amaranthus retroflexus, pre-emergence, 240 h, preemergence, 0 to 100 scale where 0 is no effect and 100 is complete control, read-out: Pigweed plant response rating
[10] = test system: giant foxtail (Setaria faberii); test: Test A preemergence; settings: Setaria faberi, pre-emergence, 240 h, preemergence, 0 to 100 scale where 0 is no effect and 100 is complete control, read-out: Foxtail, Giant plant response rating
Procedure, shortened: as §1

[11] = test system: barnyardgrass (Echinochloa crus-galli); test: Test B flooded paddy test; settings: Echinochloa crus-galli, 250 g ai/ha, Flood; 0 to 100 scale where 0 is no effect and 100 is complete control; read-out: Barnyardgrass plant response rating
Procedure, shortened: (§2)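 Flooding to 3 cm over soil accompanied treatment, which consisted of adding compound to the standing water around 2-leaf plants; depth was then maintained. Visual assessment versus controls followed at 13 to 15 d (scale 0–100, 0 meaning no effect).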

[12] = test system: sedge, umbrella (small-flower umbrella sedge, Cyperus difformis); test: Test B flooded paddy test; settings: Cyperus difformis, 250 g ai/ha, Flood; 0 to 100 scale where 0 is no effect and 100 is complete control; read-out: Sedge, Umbrella plant response rating
Procedure, shortened: as §2

[13] = test system: ducksalad (Heteranthera limosa); test: Test B flooded paddy test; settings: Heteranthera limosa, 250 g ai/ha, Flood; 0 to 100 scale where 0 is no effect and 100 is complete control; read-out: Ducksalad plant response rating
Procedure, shortened: as §2

rice (Oryra sativa) = test: Test B flooded paddy test; settings: Oryza sativa, 250 g ai/ha, Flood; 0 to 100 scale where 0 is no effect and 100 is complete control; read-out: Rice plant response rating
Procedure, shortened: as §2

[14] = 125 g ai/ha, visual injury on 0 to 100 scale (0 no effect, 100 complete control), approx. 10 d
[15] = 500 g ai/ha, 0 to 100 scale, 0 is no effect, 100 is complete control

SMILES: O=C1NC[C@H](c2ccc(F)c(OC(F)(F)C(F)F)c2)[C@H]1C(=O)Nc1ccc(F)cc1F (racemic) [Compound 1154]
- pest or weed control at 125 g/ha (Kochia (Kochia scoparia) [1]; [14]): 60%
- pest or weed control at 500 g/ha (Kochia (Kochia scoparia) [1]; [15]): 60%
- pest or weed control at 125 g/ha [2, 14]: 60%
- pest or weed control at 500 g/ha [2, 15]: 70%
- pest or weed control at 125 g/ha [3, 14]: 70%
- pest or weed control at 500 g/ha [3, 15]: 90%
- plant injury at 125 g/ha (corn (Zea mays); [14]): 90%
- plant injury at 500 g/ha (corn (Zea mays); [15]): 90%
- pest or weed control at 125 g/ha ([4]; 125 g ai/ha, visual injury vs untreated controls after approx. 10 d, 0 = no effect, 100 = complete control, read-out: Pigweed plant response rating (0 to 100 scale)): 60%
- pest or weed control at 500 g/ha ([4]; 500 g ai/ha, 0 to 100 scale, 0 is no effect, 100 is complete control, read-out: Pigweed plant response rating): 70%
- pest or weed control at 125 g/ha (Kochia (Kochia scoparia) [5]; 125 g ai/ha, approx. 10 d): 70%
- pest or weed control at 500 g/ha (Kochia (Kochia scoparia) [5]; 500 g ai/ha): 90%
- pest or weed control at 125 g/ha ([6]; 125 g ai/ha, approx. 10 d): 20%
- pest or weed control at 500 g/ha ([6]; 500 g ai/ha): 90%
- pest or weed control at 125 g/ha ([7]; 125 g ai/ha, approx. 10 d): 30%
- pest or weed control at 500 g/ha ([7]; 500 g ai/ha): 50%
- pest or weed control at 125 g/ha ([8]; 125 g ai/ha, approx. 10 d): 90%
- pest or weed control at 500 g/ha ([8]; 500 g ai/ha): 90%
- pest or weed control at 125 g/ha ([9]; 125 g ai/ha, approx. 10 d): 60%
- pest or weed control at 500 g/ha ([9]; 500 g ai/ha): 80%
- pest or weed control at 125 g/ha ([10]; 125 g ai/ha, approx. 10 d): 90%
- pest or weed control at 500 g/ha ([10]; 500 g ai/ha): 90%
- pest or weed control at 250 g/ha [11]: 30%
- pest or weed control at 250 g/ha [12]: 0%
- pest or weed control at 250 g/ha [13]: 100%
- pest or weed control at 250 g/ha (rice (Oryra sativa)): 30%
